Reference: BindingDB's records for patent US12115157 (Boehringer Ingelheim International, 2024)

Molecular target: G-protein coupled receptor 52 (Homo sapiens, UniProt Q9Y2T5)
Test: Homogeneous Time-Resolved Fluorescence (HTRF) Assay
Protocol: HTRF cAMP assays were performed using commercially available assay kits according to the manufacturer's instructions (cAMP Dynamic 2 Assay Kit; #62AM4PEJ, Cisbio Bioassays, Bedford, MA). An aliquot of CHO-K1 cells stably expressing recombinant human GPR52 was thawed and resuspended in cell buffer (1×PBS (w/o Ca2+/Mg2+)) at a density of 4×10^5 cells per mL. Test compounds were solubilized in DMSO to 10 mM stock solutions and serially diluted in DMSO using 6-fold dilutions to generate 8-point dose response curves. These serially diluted samples were then diluted 1:50 in compound dilution buffer (1×PBS (w/o Ca2+/Mg2+) containing 0.5 mM IBMX, 0.1% BSA) to achieve a 4× stock. The diluted compounds were transferred (5 μL per well) in duplicate to the 384-well assay plate (Optiplate #6007290, PerkinElmer, Waltham, MA). Both a positive (reference compound) and negative (non-stimulated vehicle) control was included in each assay run in column 23. The cell suspension was subsequently dispensed into the 384-well assay plates at 15 μL per well (6000 cells) such that the compound was diluted to 1×. […] After a one-hour incubation at room temperature, 10 μL of cAMP D2 reagent followed by 10 μL of cryptate reagent (provided in the Cisbio kit) was added to each well. Plates were then incubated at room temperature for one hour prior to reading. Time-resolved fluorescence measurements were collected on an EnVision HTRF plate reader (PerkinElmer, Waltham, MA).

Chain of G-protein coupled receptor 52 (Q9Y2T5 whole entry): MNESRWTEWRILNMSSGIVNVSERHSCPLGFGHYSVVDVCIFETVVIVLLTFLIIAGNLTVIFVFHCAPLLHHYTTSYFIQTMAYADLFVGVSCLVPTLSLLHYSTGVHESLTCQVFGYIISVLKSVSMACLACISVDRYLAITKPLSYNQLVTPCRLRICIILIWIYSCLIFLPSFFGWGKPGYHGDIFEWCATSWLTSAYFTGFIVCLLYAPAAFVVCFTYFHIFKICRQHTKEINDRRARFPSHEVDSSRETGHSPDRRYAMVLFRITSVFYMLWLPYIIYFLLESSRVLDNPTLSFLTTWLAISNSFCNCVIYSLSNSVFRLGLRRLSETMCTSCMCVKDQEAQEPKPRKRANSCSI

Row | SMILES | EC50
1 | CC(=O)N1C[C@H](NC(=O)c2nccnc2N2CC(Oc3cc(F)c(F)c(F)c3)C2)C(F)(F)C1 [US12115157, Ex. 11b] | 10 nM
2 | CC(=O)N1C[C@H](NC(=O)c2nccnc2N2CC(Oc3ccc(F)c(F)c3)C2)C(F)(F)C1 [US12115157, Ex. 8b] | 7 nM
3 | CC(=O)N1C[C@@H](NC(=O)c2nsnc2N2CC(Oc3ccc(F)c(F)c3)C2)C(F)(F)C1 [US12115157, Ex. 13a] | 595 nM
4 | CC(=O)N1C[C@@H](NC(=O)c2nccnc2N2CC(Oc3cc(F)c(F)c(F)c3)C2)C(F)(F)C1 [US12115157, Ex. 11a] | 1280 nM
5 | CC(=O)N1C[C@@H](NC(=O)c2nccnc2N2CC(Oc3ccc(F)c(F)c3)C2)C(F)(F)C1 [US12115157, Ex. 8a] | 1090 nM
6 | CC(=O)N1C[C@H](NC(=O)c2nsnc2N2CC(Oc3ccc(F)c(F)c3)C2)C(F)(F)C1 [US12115157, Ex. 13b] | 3 nM
